Assay results reported in patent US20210093645A1, “COMBINATION ANTI CANCER THERAPY WITH AN IAP ANTAGONIST AND AN ANTI PD-1 MOLECULE” (Debiopharm International S.A., priority 2017, published 2021).
“Also recorded” adds a separate entry of the source. Numbered stars: 1 amine (or outer) side, 2 acyl side, 3 side chain; on linkers, the order of the positions; unused ones are H or OH. Bridge positions count the residues as written; N and C are the ends. Square brackets hold non-standard residues; d marks the D form. Peptide text beside a SMILES is read from it. I, II: the chains in the order shown. Hexamethylenediamine = C(CCCN[*:2])CCN[*:1]; Dip = N[C@H](C(=O)O)C(c1ccccc1)c1ccccc1; Chg = N[C@H](C(=O)O)C1CCCCC1; NMeA = CN[C@@H](C)C(=O)O

Columns and labels:
antigen-presenting cells = details: cited from earlier work
[1] = system: syngeneic colon carcinoma cell line MC-38; assay: MC38 syngeneic tumor model, birinapant or LCL161 pretreatment then anti-PD-L1 (Example 3); type: in vivo, C57BL/6J mice
Protocol: 72 adult female C57BL/6J mice (obtained from Shanghai Lingchang Bio-Technology Co.) were inoculated subcutaneously at the right lower flank with 1×10^6 cells of the syngeneic colon carcinoma cell line MC-38 in 0.1 ml of PBS. Tumor volumes were measured three times weekly in two dimensions using a caliper, and the volume was expressed in mm^3 using the formula: V=(L×W×W)/2, where V is tumor volume, L is tumor length (the longest tumor dimension) and W is tumor width (the longest tumor dimension perpendicular to L). All animals were randomly allocated to the 9 different study groups with a mean tumor size of 52 mm^3 based on the “Matched distribution” randomization method (StudyDirector™ software, version 3.1.399.19) and treatments started (denoted as day 1). Dosing as well as tumor and body weight measurement were conducted in a Laminar Flow Cabinet.
On day 1, part of the animals received either a 1 week pretreatment consisting of i.p. SMAC mimetic birinapant at a dose of 30 mg/kg, or its vehicle, in a biweekly schedule as indicated in Table 2. The other part of the animals received either a 1 week pretreatment consisting of p.o. SMAC mimetic LCL161 at a dose of 75 mg/kg, or its vehicle, in a biweekly schedule as indicated in Table 2.
On day 8, vehicle or SMAC mimetic pretreated animals were then further treated until study end with either biweekly i.p. 10 mg/kg of control antibody rlgG2b (Clone: LTF-2, BioXcell), or biweekly i.p. 10 mg/kg of anti-PD-L1 antibody (Mouse surrogate antibody, anti-mouse PD-L1, Clone: 10F.9G2, BioXcell). 1 group of animals that had received 1 week of birinapant pretreatment, and 1 group of animals that had received 1 week of LCL161 pretreatment, were each continued on the respective SMAC mimetic during the period of anti-PD-L1 treatment until study end.

melanoma = melanoma patients; cited from earlier work
RCC = RCC patients; cited from earlier work
[2] = system: advanced treatment-refractory NSCLC; details: advanced treatment-refractory NSCLC patients; cited from earlier work
[3] = in vivo; cited from earlier work
T-cell = details: in the context of a primary T-cell receptor stimulus; cited from earlier work
PD-1 = assay: immunohistochemistry of tumor biopsies before and after Debio 1143, PD-1 staining; type: in vivo, human; details: head & neck cancer patients, n=12; 200 mg Debio 1143 p.o. daily day 1 to 15; biopsy after vs before treatment
Protocol: (§1) The study enrolled adult patients with newly diagnosed histologically proven squamous cell carcinoma of the oral cavity, oropharynx, hypopharynx or larynx. During a screening period of two weeks (days −14 to −1), a tumor biopsy was taken and analyzed. Treatment was from day 1 to day 15 (+/−2 days) and consisted (in one arm) of daily administration p.o. of 200 mg Debio 1143. At the end of this treatment period, a second tumor biopsy was taken and analyzed, and the patients underwent surgery. T cells were identified using CD3 rabbit mAb 2GV6 from Ventana Roche (provided as a ready-to-use solution). Slides were processed on a Ventana Benchmark Ultra automaton. Exposure to antibody was 20 min. Pretreatment of the slides (64 min) was with cell conditioning solution CC1 (Ventana); the Optiview system (Ventana) (chromogen: DAB) was employed for visualization of the signal. Staining of CD8 and CD4 T cells was by the same protocol. The CD8 antibody was the SP57 rabbit mAb, and the CD4 antibody was the SP35 rabbit mAb. Both antibodies were from Ventana Roche and were provided as ready-to-use solutions. The antibody selected for PD-1 detection was the NAT105 mouse mAb that was also provided as a ready-to-use solution (Cell Marque). The protocol for PD-1 detection was the same as that used for CD3 staining, except that antibody exposure and pretreatment times were each 16 min.

cIAP1 = molecular target: T1, cIAP1 (Homo sapiens, UniProt Q13490); assay: immunohistochemistry of tumor biopsies before and after Debio 1143, cIAP1 staining; type: in vivo; details: head & neck cancer patients, n=12; 200 mg Debio 1143 p.o. daily day 1 to 15; biopsy after vs before treatment
T1 construct: from tissue; host or cells: tumor biopsies of patients with squamous cell carcinoma of the head and neck
Protocol: (§2) The study enrolled adult patients with newly diagnosed histologically proven squamous cell carcinoma of the oral cavity, oropharynx, hypopharynx or larynx. During a screening period of two weeks (days −14 to −1), a tumor biopsy was taken and analyzed. Treatment was from day 1 to day 15 (+/−2 days) and consisted (in one arm) of daily administration p.o. of 200 mg Debio 1143. At the end of this treatment period, a second tumor biopsy was taken and analyzed, and the patients underwent surgery. Biopsies were analyzed by immunohistochemical methods. Staining for cIAP1 was carried out using a Dako autostainer automaton (Agilent). The EPR4673 […] mAb (Abcam) was utilized at a 1/100 dilution, and tissue slides were exposed to the antibody for 20 min. Pretreatment of the slides was with EnVision FLEX Target Retrieval Solution, Low pH; the EnVision FLEX system (chromogen: DAB) was employed for visualization of the signal. EnVision Flex system and reagent were from Agilent. The same protocol was applied for PD-L1 staining. The E1 L3N rabbit mAb (Cell Signaling Technology) was used at a 1/500 dilution.

[4] = system: syngeneic colon carcinoma cell line CT26; assay: CT26 syngeneic tumor model, Debio 1143 pretreatment then anti-PD-1 (Example 4); type: in vivo, BALB/c mice
Protocol: Five groups (n=8) of adult female BALB/c mice (obtained from Shanghai Lingchang Bio-Technology Co.) were inoculated in the right lower flank with 0.5×10^6 cells of the syngeneic colon carcinoma cell line CT26. When average tumor size reached about 50 mm^3 (day 1), animals received either pretreatment consisting of p.o. SMAC mimetic Debio 1143 (Debiopharm) at a dose of 100 mg/kg or vehicle as indicated in Table 3a. The dosing was repeated on each day for 7 days (day 1-7). […] Another set of two groups (vehicle- and Debio 1143-pretreated animals) received biweekly i.p. 10 mg/kg of anti-PD-1 antibody (Mouse surrogate antibody, anti-mouse PD-1, Clone: RMP1-14, BioXcell). A final group of Debio 1143-pretreated animals received both anti-PD-1 antibody as well as was continued on daily Debio 1143. Tumor volumes and body weights were assessed trice weekly. Tumor size was measured in two dimensions using a caliper, and the volume was expressed in mm^3 using the formula: V=0.5 a×b^2 where a and b are the long and short diameters of the tumor, respectively.

[5] = system: syngeneic colon carcinoma cell line MC38; assay: MC38 syngeneic tumor model, Debio 1143 pretreatment then anti-PD-L1 (Example 2); type: in vivo, C57BL/6J mice
Protocol: Five groups (n=8) of adult female C57BL/6J mice (obtained from Shanghai Lingchang Bio-Technology Co.) were inoculated in the right lower flank with 1×10^6 cells of the syngeneic colon carcinoma cell line MC38. When average tumor size reached about 50 mm^3 (day 1), animals received either pretreatment consisting of p.o. SMAC mimetic Debio 1143 (Debiopharm) at a dose of 100 mg/kg or vehicle as indicated in Table 1. The dosing was repeated on each day for 7 days (day 1-7). On the subsequent day (day 8), animals of a vehicle-treated group and a Debio 1143-pretreated group were given i.p. 10 mg/kg of control antibody rlgG2b (Clone: LTF-2, BioXcell). Control antibody was administered twice weekly until the end of the study. Another set of two groups (vehicle- and Debio 1143-pretreated animals) received i.p. 10 mg/kg of anti-PD-L1 antibody (Mouse surrogate antibody, anti-mouse PD-L1, Clone: 10F.9G2, BioXcell). Administration was repeated twice weekly as for the control antibody. A final group of Debio 1143-pretreated animals received both anti-PD-L1 antibody as well as was continued on daily Debio 1143. Tumor volumes and body weights were assessed trice weekly. Tumor size was measured in two dimensions using a caliper, and the volume was expressed in mm^3 using the formula: V=0.5 a×b^2 where a and b are the long and short diameters of the tumor, respectively.

PD-L1 = assay: immunohistochemistry of tumor biopsies before and after Debio 1143, PD-L1 staining; type: in vivo, human; details: head & neck cancer patients, n=12; 200 mg Debio 1143 p.o. daily day 1 to 15; biopsy after vs before treatment
Protocol: as §2

CD4+ T-lymphocytes = assay: immunohistochemistry of tumor biopsies before and after Debio 1143, CD4 staining; type: in vivo, human; details: head & neck cancer patients, n=12; 200 mg Debio 1143 p.o. daily day 1 to 15; biopsy after vs before treatment
Protocol: as §1

CD8+ T-lymphocytes = assay: immunohistochemistry of tumor biopsies before and after Debio 1143, CD8 staining; type: in vivo, human; details: head & neck cancer patients, n=12; 200 mg Debio 1143 p.o. daily day 1 to 15; biopsy after vs before treatment
Protocol: as §1

T1 sequence (Q13490 whole entry): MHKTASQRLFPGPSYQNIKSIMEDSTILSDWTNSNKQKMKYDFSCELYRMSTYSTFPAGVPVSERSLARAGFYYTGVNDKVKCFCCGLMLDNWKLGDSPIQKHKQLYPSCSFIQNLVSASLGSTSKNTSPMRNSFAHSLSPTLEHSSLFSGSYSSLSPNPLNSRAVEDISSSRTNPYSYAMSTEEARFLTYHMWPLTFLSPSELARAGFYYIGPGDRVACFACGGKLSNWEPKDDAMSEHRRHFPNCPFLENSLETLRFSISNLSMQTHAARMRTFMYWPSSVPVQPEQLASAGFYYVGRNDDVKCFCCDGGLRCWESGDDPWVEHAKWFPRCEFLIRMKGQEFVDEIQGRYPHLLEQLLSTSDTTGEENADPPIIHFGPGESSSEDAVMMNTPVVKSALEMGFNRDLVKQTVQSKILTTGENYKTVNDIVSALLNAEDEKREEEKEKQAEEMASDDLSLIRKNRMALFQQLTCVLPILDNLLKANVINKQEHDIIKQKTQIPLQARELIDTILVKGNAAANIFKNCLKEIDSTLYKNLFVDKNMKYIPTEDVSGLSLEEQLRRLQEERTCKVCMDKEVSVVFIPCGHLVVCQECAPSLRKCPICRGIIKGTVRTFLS

CC[C@H](NC(=O)[C@H](C)NC)C(=O)N1C[C@@H](O)C[C@H]1Cc1c(-c2[nH]c3cc(F)ccc3c2C[C@@H]2C[C@H](O)CN2C(=O)[C@H](CC)NC(=O)[C@H](C)NC)[nH]c2cc(F)ccc12 [birinapant]
function of antigen-presenting cells (dendritic cell maturation, type-II to type-I macrophage conversion) (antigen-presenting cells): modulate the function of antigen-presenting cells
anti-cancer effect (median tumor volume) ([1]; birinapant 30 mg/kg i.p. BIW 1 week pretreatment alone, then control antibody rlgG2b (group 2)): modest anti-cancer effect
anti-cancer effect (median tumor volume) ([1]; birinapant 30 mg/kg i.p. BIW 1 week pretreatment, then anti-PD-L1 10 mg/kg i.p. BIW (group 4)): singificant anti-cancer effect; also recorded: sensitizes MC38 tumors to a subsequent treatment with an anti-PD-L1 antibody
anti-cancer effect (median tumor volume) ([1]; birinapant pretreatment, then anti-PD-L1 plus continued birinapant (group 5), compared with group 4): small additional benefit

CN[C@@H](C)C(=O)N[C@H](C(=O)N1CCC[C@H]1c1nc(C(=O)c2ccc(F)cc2)cs1)C1CCCCC1 [LCL161]
anti-cancer effect (median tumor volume) ([1]; LCL161 75 mg/kg p.o. BIW 1 week pretreatment alone, then control antibody rlgG2b (group 7)): modest anti-cancer effect
anti-cancer effect (median tumor volume) ([1]; LCL161 75 mg/kg p.o. BIW 1 week pretreatment, then anti-PD-L1 10 mg/kg i.p. BIW (group 8)): small additional benefit to LCL161 pretreatment alone; also recorded: sensitizes MC38 tumors to a subsequent treatment with an anti-PD-L1 antibody
anti-cancer effect (median tumor volume) ([1]; LCL161 pretreatment, then anti-PD-L1 plus continued LCL161 (group 9)): significant additional benefit

Nivolumab: fully human IgG4 anti-PD-1 monoclonal antibody from Bristol-Myers Squibb/Ono Pharmaceuticals
Objective response rate (melanoma): 31%
Overall survival (melanoma): 16.8 months
Objective response rate (RCC): 20%
Overall survival (RCC): 22.4 months
Objective response rate [2]: 17%
Overall survival [2]: 9.9 months

CN[C@@H](C)C(=O)N[C@H](C(=O)N1CCC[C@H]1C(=O)N[C@H](C(=O)NCCCCCCNC(=O)[C@@H](NC(=O)[C@@H]1CCCN1C(=O)[C@@H](NC(=O)[C@H](C)NC)C1CCCCC1)C(c1ccccc1)c1ccccc1)C(c1ccccc1)c1ccccc1)C1CCCCC1 [BV6] (I: H-[NMeA][Chg]P[Dip] / II: H-[NMeA][Chg]P[Dip]; linker I:C-II:C via Hexamethylenediamine)
function of antigen-presenting cells (dendritic cell maturation, type-II to type-I macrophage conversion) (antigen-presenting cells): modulate the function of antigen-presenting cells

CN[C@@H](C)C(=O)N[C@H](C(=O)N1CC[C@H]2CCN(CCc3ccccc3)C[C@H]21)C1CCCCC1 [LBW242]
efficacy in a prophylactic cancer vaccine model [3]: enhanced efficacy
anti-tumor immune responses (T-cell proliferation, co-stimulation, activation) (T-cell): increase anti-tumor immune responses

CN[C@@H](C)C(=O)N[C@H]1CN(C(=O)CC(C)C)CC[C@H]2CC[C@@H](C(=O)NC(c3ccccc3)c3ccccc3)N2C1=O [Debio 1143]
percentage / number of immune cells expressing PD-1 in tumor (PD-1): increased significantly; also recorded: increases the number
levels of cIAP1 in the tumors (cIAP1): reduced levels of cIAP1 in the tumors of most patients; also recorded: induces the degradation of cIAP1
anti-cancer effect (median tumor volume) ([4]; Debio 1143 100 mg/kg p.o. QD day 1-7 pretreatment alone, then oral vehicle (group 3)): modest anti-cancer effect
anti-cancer effect (median tumor volume) ([4]; Debio 1143 100 mg/kg p.o. QD day 1-7 pretreatment, then anti-PD-1 10 mg/kg i.p. BIW (group 4)): small additional benefit to Debio 1143 pretreatment alone; also recorded: sensitizes CT26 tumors to a subsequent treatment with an anti-PD-1 antibody
anti-cancer effect (median tumor volume) ([4]; Debio 1143 pretreatment, then anti-PD-1 plus continued daily Debio 1143 (group 5)): significant additional benefit
anti-cancer effect (median tumor volume) ([5]; Debio 1143 100 mg/kg p.o. QD day 1-7 pretreatment alone, then control antibody rlgG2b (group 2)): modest anti-cancer effect
anti-cancer effect (median tumor volume) ([5]; Debio 1143 100 mg/kg p.o. QD day 1-7 pretreatment, then anti-PD-L1 10 mg/kg i.p. BIW (group 4)): profound anti-cancer effect; also recorded: sensitizes MC38 tumors to a subsequent treatment with an anti-PD-L1 antibody
anti-cancer effect (median tumor volume) ([5]; Debio 1143 pretreatment day 1-7, then anti-PD-L1 plus continued daily Debio 1143 (group 5), compared with group 4): small additional benefit
frequency / number of PD-L1-expressing tumor cells (PD-L1): also increased; also recorded: increases the number
percentage / number of immune cells expressing PD-L1 in tumor (PD-L1): increased significantly; also recorded: increases the number
number of CD4+ T cells in the tumor microenvironment (CD4+ T-lymphocytes): both increased; also recorded: increases the number
number of CD8+ T cells in the tumor microenvironment (CD8+ T-lymphocytes): increase in CD8+ T cell number being significant; also recorded: increases the number
